Each structure is given as a SMILES string.

The AC50 is the concentration giving half of the maximal activity seen. A lower AC50 goes with greater potency.

Experiment [1] has as its target T1, Alpha-1A adrenergic receptor (Homo sapiens, UniProt P35348).
T1 sequence (P35348 whole entry): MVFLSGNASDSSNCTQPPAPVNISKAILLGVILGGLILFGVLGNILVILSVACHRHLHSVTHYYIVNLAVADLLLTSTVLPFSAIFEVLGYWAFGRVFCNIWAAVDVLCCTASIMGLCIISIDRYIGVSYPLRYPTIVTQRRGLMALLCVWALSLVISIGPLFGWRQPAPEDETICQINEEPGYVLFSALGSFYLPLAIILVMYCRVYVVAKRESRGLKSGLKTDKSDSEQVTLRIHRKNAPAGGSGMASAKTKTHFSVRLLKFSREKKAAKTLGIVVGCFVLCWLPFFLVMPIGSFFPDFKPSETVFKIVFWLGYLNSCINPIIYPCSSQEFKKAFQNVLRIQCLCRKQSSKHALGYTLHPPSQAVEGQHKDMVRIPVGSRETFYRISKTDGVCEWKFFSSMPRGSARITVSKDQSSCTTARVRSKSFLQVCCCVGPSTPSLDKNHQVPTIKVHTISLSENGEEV
It counts as functional, cell-based.

The target in a further experiment is Vasopressin V2 receptor (Homo sapiens, UniProt P30518).
For the next experiment, the target named is D(1A) dopamine receptor (Homo sapiens, UniProt P21728). The format is functional, cell-based.
The next experiment has as its target Histamine H2 receptor (Homo sapiens, UniProt P25021). The format is functional, cell-based.
Experiment [2] concerns the target T2, 5-hydroxytryptamine receptor 3A (Homo sapiens, UniProt P46098).
T2 sequence (P46098 whole entry): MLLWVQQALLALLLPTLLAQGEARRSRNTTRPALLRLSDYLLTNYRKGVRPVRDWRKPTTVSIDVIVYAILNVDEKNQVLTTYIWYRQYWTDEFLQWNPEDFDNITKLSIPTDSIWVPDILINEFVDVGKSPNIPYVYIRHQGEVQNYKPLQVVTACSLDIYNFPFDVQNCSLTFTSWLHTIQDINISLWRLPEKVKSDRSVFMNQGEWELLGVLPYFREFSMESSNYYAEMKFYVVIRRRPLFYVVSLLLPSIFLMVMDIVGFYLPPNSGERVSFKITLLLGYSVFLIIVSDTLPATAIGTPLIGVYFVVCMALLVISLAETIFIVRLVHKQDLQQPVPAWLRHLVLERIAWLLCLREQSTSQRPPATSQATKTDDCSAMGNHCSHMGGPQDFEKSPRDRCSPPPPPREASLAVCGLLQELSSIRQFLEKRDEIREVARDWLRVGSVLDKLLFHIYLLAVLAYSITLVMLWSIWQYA
It counts as functional.

The target of experiment [3] is 3',5'-cyclic-AMP phosphodiesterase 4D (Homo sapiens, UniProt Q08499). The format is functional.
In a further experiment the target is T3, Progesterone receptor (Homo sapiens, UniProt P06401).
T3 sequence (P06401 whole entry): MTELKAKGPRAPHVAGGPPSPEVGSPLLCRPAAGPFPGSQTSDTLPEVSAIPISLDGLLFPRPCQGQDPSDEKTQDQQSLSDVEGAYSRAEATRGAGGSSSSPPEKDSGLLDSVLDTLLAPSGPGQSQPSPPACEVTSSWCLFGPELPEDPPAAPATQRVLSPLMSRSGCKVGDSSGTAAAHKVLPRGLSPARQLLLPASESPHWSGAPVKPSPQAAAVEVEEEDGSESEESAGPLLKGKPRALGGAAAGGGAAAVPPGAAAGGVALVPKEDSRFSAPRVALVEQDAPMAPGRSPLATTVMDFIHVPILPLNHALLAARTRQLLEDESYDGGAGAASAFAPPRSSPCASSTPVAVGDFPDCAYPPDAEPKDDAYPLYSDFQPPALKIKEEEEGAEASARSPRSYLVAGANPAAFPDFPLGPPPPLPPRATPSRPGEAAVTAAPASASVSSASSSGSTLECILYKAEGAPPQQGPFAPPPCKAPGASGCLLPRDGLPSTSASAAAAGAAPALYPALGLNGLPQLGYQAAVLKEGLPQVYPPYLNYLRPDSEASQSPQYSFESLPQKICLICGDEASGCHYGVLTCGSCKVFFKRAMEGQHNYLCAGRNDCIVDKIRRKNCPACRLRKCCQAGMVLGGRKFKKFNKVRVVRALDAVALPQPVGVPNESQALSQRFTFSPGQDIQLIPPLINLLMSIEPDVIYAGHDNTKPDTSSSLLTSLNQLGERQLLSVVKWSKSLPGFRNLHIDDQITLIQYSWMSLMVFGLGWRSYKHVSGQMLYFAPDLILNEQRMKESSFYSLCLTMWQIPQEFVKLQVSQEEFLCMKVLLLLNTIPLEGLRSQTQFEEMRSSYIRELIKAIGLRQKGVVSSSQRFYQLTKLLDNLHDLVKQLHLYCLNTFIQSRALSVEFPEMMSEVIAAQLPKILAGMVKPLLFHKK
The format is functional.

Experiment [4] deals with T4, Prostaglandin G/H synthase 1 (Rattus norvegicus, UniProt Q63921).
T4 sequence (Q63921 whole entry): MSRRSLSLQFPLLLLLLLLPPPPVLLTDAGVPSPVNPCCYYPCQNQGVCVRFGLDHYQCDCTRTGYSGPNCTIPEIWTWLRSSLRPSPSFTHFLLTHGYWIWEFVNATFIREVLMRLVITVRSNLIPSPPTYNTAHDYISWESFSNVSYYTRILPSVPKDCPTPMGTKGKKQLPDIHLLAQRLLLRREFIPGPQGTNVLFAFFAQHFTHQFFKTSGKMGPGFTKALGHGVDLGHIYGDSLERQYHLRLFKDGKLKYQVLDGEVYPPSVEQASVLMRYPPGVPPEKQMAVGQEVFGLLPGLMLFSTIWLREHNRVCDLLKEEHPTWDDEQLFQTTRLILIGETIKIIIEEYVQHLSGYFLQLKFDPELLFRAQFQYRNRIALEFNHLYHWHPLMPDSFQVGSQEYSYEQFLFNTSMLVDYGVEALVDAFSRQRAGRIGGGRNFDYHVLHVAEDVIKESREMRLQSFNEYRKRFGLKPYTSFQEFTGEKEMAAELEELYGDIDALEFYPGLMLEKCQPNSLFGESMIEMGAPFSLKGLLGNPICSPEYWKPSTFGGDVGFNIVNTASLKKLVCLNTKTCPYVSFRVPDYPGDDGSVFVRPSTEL
The format is functional.

Experiment [5] addresses Sodium-dependent dopamine transporter (Homo sapiens, UniProt Q01959).
Also: assay procedure not described here.

Sequence of 3',5'-cyclic-AMP phosphodiesterase 4D (Q08499 whole entry): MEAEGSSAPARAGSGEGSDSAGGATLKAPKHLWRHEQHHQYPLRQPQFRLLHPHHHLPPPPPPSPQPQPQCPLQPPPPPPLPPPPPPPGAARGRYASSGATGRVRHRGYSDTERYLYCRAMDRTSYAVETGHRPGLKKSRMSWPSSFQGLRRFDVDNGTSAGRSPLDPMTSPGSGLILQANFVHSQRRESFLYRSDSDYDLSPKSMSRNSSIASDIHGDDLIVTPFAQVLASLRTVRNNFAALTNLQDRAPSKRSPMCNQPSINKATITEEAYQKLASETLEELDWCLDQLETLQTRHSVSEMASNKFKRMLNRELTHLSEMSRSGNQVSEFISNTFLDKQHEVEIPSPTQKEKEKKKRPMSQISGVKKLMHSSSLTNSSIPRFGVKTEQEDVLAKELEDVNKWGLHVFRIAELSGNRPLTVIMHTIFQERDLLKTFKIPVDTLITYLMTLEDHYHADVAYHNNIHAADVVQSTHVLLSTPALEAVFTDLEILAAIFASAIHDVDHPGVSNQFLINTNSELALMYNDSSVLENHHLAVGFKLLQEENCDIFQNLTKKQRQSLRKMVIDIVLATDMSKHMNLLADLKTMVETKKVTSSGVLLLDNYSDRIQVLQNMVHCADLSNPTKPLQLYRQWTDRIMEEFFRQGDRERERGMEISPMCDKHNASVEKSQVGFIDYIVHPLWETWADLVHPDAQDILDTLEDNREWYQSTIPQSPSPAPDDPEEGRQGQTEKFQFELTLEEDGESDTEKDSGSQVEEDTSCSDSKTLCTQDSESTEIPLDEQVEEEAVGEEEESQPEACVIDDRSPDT
Sequence of D(1A) dopamine receptor (P21728 whole entry): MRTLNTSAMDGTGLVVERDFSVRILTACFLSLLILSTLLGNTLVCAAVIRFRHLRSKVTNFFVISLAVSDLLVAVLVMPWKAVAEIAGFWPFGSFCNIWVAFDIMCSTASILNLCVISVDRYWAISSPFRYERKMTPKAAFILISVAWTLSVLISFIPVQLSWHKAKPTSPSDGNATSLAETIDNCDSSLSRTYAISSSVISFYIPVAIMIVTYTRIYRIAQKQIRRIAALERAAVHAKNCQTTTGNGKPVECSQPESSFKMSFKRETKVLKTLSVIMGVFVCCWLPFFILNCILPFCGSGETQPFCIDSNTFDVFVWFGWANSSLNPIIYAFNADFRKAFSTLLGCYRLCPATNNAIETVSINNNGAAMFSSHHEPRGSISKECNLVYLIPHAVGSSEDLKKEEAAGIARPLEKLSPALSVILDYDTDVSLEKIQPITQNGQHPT
Sequence of Vasopressin V2 receptor (P30518 whole entry): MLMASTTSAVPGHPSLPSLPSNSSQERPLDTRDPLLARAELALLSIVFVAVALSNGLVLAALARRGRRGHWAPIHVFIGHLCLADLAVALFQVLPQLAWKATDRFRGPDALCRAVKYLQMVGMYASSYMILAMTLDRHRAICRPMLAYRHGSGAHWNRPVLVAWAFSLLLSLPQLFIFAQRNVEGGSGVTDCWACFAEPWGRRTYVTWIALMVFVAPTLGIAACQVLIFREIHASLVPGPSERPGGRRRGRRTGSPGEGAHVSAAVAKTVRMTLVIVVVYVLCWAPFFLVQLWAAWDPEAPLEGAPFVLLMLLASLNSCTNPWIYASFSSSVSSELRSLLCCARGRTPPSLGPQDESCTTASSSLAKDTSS
Sequence of Sodium-dependent dopamine transporter (Q01959 whole entry): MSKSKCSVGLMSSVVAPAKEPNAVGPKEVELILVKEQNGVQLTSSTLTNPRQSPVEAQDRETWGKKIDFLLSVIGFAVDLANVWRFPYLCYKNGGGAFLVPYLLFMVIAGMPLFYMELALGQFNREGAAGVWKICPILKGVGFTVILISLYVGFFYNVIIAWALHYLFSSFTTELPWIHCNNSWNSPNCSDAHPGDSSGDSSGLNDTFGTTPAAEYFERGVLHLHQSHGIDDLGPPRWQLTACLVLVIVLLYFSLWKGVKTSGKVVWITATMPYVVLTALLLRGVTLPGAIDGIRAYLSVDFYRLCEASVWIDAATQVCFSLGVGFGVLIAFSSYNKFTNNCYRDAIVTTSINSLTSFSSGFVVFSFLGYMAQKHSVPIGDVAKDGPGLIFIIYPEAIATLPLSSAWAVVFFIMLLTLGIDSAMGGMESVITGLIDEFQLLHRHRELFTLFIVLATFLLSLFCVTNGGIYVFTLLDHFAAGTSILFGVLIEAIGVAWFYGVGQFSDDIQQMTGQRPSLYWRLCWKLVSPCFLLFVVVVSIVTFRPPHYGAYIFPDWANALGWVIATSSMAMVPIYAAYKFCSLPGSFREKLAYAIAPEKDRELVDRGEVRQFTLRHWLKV
Sequence of Histamine H2 receptor (P25021 whole entry): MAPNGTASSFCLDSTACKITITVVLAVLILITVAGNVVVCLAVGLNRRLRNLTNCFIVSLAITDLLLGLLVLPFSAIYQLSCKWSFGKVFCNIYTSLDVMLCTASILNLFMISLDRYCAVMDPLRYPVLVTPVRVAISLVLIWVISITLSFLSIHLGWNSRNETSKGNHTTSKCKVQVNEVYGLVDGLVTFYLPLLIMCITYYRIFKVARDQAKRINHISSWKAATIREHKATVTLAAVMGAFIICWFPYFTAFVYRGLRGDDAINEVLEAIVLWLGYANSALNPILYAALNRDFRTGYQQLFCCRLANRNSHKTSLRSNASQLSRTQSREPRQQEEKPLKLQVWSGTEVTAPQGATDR

With `O=C(O)CCNC(=O)c1ccccc1` [BETAMIPRON], the half-maximal activity concentration (AC50) (in experiment [1]; on Vasopressin V2 receptor; on D(1A) dopamine receptor; at Histamine H2 receptor; in experiment [2]; in [3]) was over 30 µM throughout. Also, the values for the AC50 (at Progesterone receptor; in experiment [4]; in experiment [5]) were over 30 µM, over 10 µM and over 30 µM, respectively.

`NC1CCN(c2nc3c(cc2F)c(=O)c(C(=O)O)cn3-c2ccc(F)cc2F)C1` (stereo not drawn) [TOSUFLOXACIN]: the AC50 (in experiment [1]; on Vasopressin V2 receptor; at D(1A) dopamine receptor; at Histamine H2 receptor; in experiment [2]; in [3]) was over 30 µM each time. Besides, the concentration at half-maximal activity (AC50) was over 30 µM on Progesterone receptor, over 10 µM in [4] and over 30 µM in [5].

As to `C[N@+]1(CCF)[C@@H]2CC[C@H]1C[C@@H](OC(=O)C(O)(c1ccccc1)c1ccccc1)C2`, the concentration at half-maximal activity (AC50) (in experiment [1]; at Vasopressin V2 receptor; on D(1A) dopamine receptor; on Histamine H2 receptor; in [2]; in [3]) was over 30 µM each time. For the same molecule, the half-maximal activity concentration (AC50) at Progesterone receptor was over 30 µM; in [4], over 10 µM; in experiment [5], over 30 µM.

As for `C=C[C@@]1(C)CC(=O)[C@]2(O)[C@@]3(C)[C@@H](O)CCC(C)(C)[C@@H]3[C@H](O)[C@H](OC(C)=O)[C@@]2(C)O1` [COLFORSIN], the AC50 (in experiment [1]; on Vasopressin V2 receptor; in experiment [2]; in experiment [3]; on Progesterone receptor; in experiment [4]) was over 30 µM each time. The AC50 in [5] is over 30 µM.

`CN(C(=O)c1c(O)c2ccccc2n(C)c1=O)c1ccccc1` [ROQUINIMEX]: the AC50 in [1] was over 30 µM; in [3] it was over 30 µM; on Progesterone receptor it was 29 µM; in experiment [4], over 30 µM; in [5] it was over 30 µM.

As to `CCC(COC(=O)c1cc(OC)c(OC)c(OC)c1)(c1ccccc1)N(C)C` (stereo not drawn) [TRIMEBUTINE], the AC50 in experiment [1] was over 30 µM; on Vasopressin V2 receptor it was over 30 µM; on D(1A) dopamine receptor it was over 30 µM; at Histamine H2 receptor, over 30 µM; in experiment [2], over 30 µM; in experiment [3], 26 µM. Moreover, the AC50 was over 30 µM on Progesterone receptor, over 30 µM in [4] and 27 µM in experiment [5].

`CCCCCCCCCCCCCCCCCCCCCC(=O)Nc1ccn([C@@H]2O[C@H](CO)[C@@H](O)[C@@H]2O)c(=O)n1` [ENOCITABINE]: the AC50 (in experiment [1]; at Vasopressin V2 receptor; at D(1A) dopamine receptor; at Histamine H2 receptor; in experiment [2]; in experiment [3]) was over 30 µM throughout. Besides, the concentration at half-maximal activity (AC50) (on Progesterone receptor; in [4]; in experiment [5]) was over 30 µM each time.

As to `O=C(O)c1ccccc1Nc1cc(Cl)ccc1C(=O)O` [LOBENZARIT], the AC50 (in experiment [1]; on Vasopressin V2 receptor; at D(1A) dopamine receptor; at Histamine H2 receptor; in experiment [2]; in experiment [3]) was over 30 µM throughout. Further, the half-maximal activity concentration (AC50) (at Progesterone receptor; in experiment [5]) was over 30 µM in each case.

As for `CC(=O)SC[C@@H](C)C(=O)N1CCC[C@H]1C(=O)N[C@@H](Cc1ccccc1)C(=O)O`, the AC50 (in [1]; on Vasopressin V2 receptor; on D(1A) dopamine receptor; at Histamine H2 receptor; in experiment [2]; in experiment [3]) was over 30 µM throughout. The AC50 (at Progesterone receptor; in experiment [4]; in experiment [5]) was over 30 µM in each case.

Consider `CCN(CC)CCNC(=O)c1cc(S(C)(=O)=O)ccc1OC` [TIAPRIDE], for which the AC50 (in [1]; at Vasopressin V2 receptor; on D(1A) dopamine receptor; at Histamine H2 receptor; in experiment [2]; in experiment [3]) was over 30 µM throughout. Also, the concentration at half-maximal activity (AC50) (on Progesterone receptor; in experiment [4]; in [5]) was over 30 µM in each case.

Consider `Oc1ccc2c(c1)[C@@]13CCCC[C@@]1(O)[C@@H](C2)N(CC1CCC1)CC3` [BUTORPHANOL], for which the AC50 (in experiment [1]; on Vasopressin V2 receptor; on D(1A) dopamine receptor; at Histamine H2 receptor; in [2]; in [3]) was over 30 µM in each case. Besides, the AC50 (at Progesterone receptor; in experiment [4]; in experiment [5]) was over 30 µM in each case.

In the case of `COc1cc2ncnc(Nc3ccc(F)c(Cl)c3)c2cc1NC(=O)/C=C/CN1CCCCC1` [DACOMITINIB ANHYDROUS], the AC50 was over 30 µM in experiment [1]; 25 µM in experiment [3]; over 10 µM at Progesterone receptor; over 30 µM in [4]; 15 µM in experiment [5].

With `C#CCOc1ccc(N)cc1C(=O)NCCCC` [PARSALMIDE], the AC50 (on Vasopressin V2 receptor; on D(1A) dopamine receptor; at Histamine H2 receptor; in experiment [2]; in experiment [3]; on Progesterone receptor) was over 30 µM in each case. Besides, the AC50 in [4] was 2.3 µM; in [5], over 30 µM.

`CCN1CCCC1CNC(=O)c1cc(S(=O)(=O)CC)c(N)cc1OC` (stereo not drawn) [AMISULPRIDE]: the AC50 (in experiment [1]; at Vasopressin V2 receptor; on D(1A) dopamine receptor; on Histamine H2 receptor; in experiment [2]; in experiment [3]) was over 30 µM each time. Besides, the concentration at half-maximal activity (AC50) was over 30 µM on Progesterone receptor and 29 µM in experiment [4].

The values are drawn from ChEMBL document CHEMBL5291721, “A preclinical secondary pharmacology resource illuminates target-adverse drug reaction associations of marketed drugs” (Nat Commun, 2023).
